Test results published in PMC10733463, “Berberine-microbiota interplay: orchestrating gut health through modulation of the gut microbiota and metabolic transformation into bioactive metabolites” (Frontiers in Pharmacology, 2023).

System: caecal microbiota cultures
Test: 16S sequencing of total (DNA) and active (cDNA) community in caecal microbiota cultures, BBR vs Control
Type: cell-based, broiler chicken
Details: 48 h; for L2FC BBRRNA vs ControlRNA: active (cDNA) community; for L2FC BBRRNA vs BBRDNA: active vs total community in BBR group; for L2FC BBRDNA vs ControlDNA: total (DNA) community
[1] = OTU 563086 ([Ruminococcus] torques group)
[2] = OTU 574038 (uncultured Lachnospiraceae)
[3] = OTU 579244 (Ruminiclostridium 9)
[4] = OTU 592616 (Erysipelatoclostridium)
[5] = OTU 647215 (uncultured Ruminococcaceae)
[6] = OTU 843454 (Family_Lachnospiraceae)
[7] = OTU 1094991 (Ruminococcaceae UCG-005)
[8] = OTU 2265722 (uncultured Lachnospiraceae)
[9] = OTU 4404181 (uncultured Ruminococcaceae)
[10] = OTU New.CleanUp.ReferenceOTU4902 (Erysipelatoclostridium)
[11] = OTU New.ReferenceOTU85 (Anaerofilum)
[12] = OTU New.ReferenceOTU111 (Lachnospiraceae UCG-010)
[13] = OTU New.ReferenceOTU118 (Erysipelatoclostridium)
[14] = OTU New.ReferenceOTU144 (Erysipelatoclostridium)
[15] = OTU New.ReferenceOTU364 (Streptococcus)
[16] = OTU New.ReferenceOTU377 (uncultured Ruminococcaceae)
[17] = OTU New.ReferenceOTU392 (Intestinimonas)
[18] = OTU New.ReferenceOTU395 (Ruminiclostridium 9)
[19] = OTU New.ReferenceOTU429 (Erysipelatoclostridium)
[20] = OTU New.ReferenceOTU462 (Erysipelatoclostridium)
[21] = OTU New.ReferenceOTU476 (Escherichia-Shigella)
[22] = OTU New.ReferenceOTU486 (Streptococcus)
[23] = OTU New.ReferenceOTU551 (uncultured Ruminococcaceae)

For `COc1ccc2cc3[n+](cc2c1OC)CCc1cc2c(cc1-3)OCO2` [Berberine, Berberine chloride], the “L2FC BBRRNA vs ControlRNA” value [1] was -0.24, the “L2FC BBRRNA vs BBRDNA” value [1] was -1.93 and the “L2FC BBRDNA vs ControlDNA” value [1] was -0.39. For the same compound, the “L2FC BBRRNA vs ControlRNA” value (OTU 564334 (Oscillibacter)) was -0.38, the “L2FC BBRRNA vs BBRDNA” value (OTU 564334 (Oscillibacter)) was 2.35 and the “L2FC BBRDNA vs ControlDNA” value (OTU 564334 (Oscillibacter)) was -0.21. For the same compound, the “L2FC BBRRNA vs ControlRNA” value [2] was -1.65, the “L2FC BBRRNA vs BBRDNA” value [2] was -0.24 and the “L2FC BBRDNA vs ControlDNA” value [2] was -2.16. The “L2FC BBRRNA vs ControlRNA” value [3] was -1.11, the “L2FC BBRRNA vs BBRDNA” value [3] was 2.49 and the “L2FC BBRDNA vs ControlDNA” value [3] was -1.32. The “L2FC BBRRNA vs ControlRNA” value (OTU 585227 (Oscillibacter)) was 0.12, the “L2FC BBRRNA vs BBRDNA” value (OTU 585227 (Oscillibacter)) was 2.44 and the “L2FC BBRDNA vs ControlDNA” value (OTU 585227 (Oscillibacter)) was 0.21. For the same compound, the “L2FC BBRRNA vs ControlRNA” value [4] was 0.37, the “L2FC BBRRNA vs BBRDNA” value [4] was 1.49 and the “L2FC BBRDNA vs ControlDNA” value [4] was 0.67. The “L2FC BBRRNA vs ControlRNA” value [5] was 0.58, the “L2FC BBRRNA vs BBRDNA” value [5] was 2.24 and the “L2FC BBRDNA vs ControlDNA” value [5] was 0.49. For the same compound, the “L2FC BBRRNA vs ControlRNA” value (OTU 813944 (Lactobacillus)) was 1.85, the “L2FC BBRRNA vs BBRDNA” value (OTU 813944 (Lactobacillus)) was 1.33 and the “L2FC BBRDNA vs ControlDNA” value (OTU 813944 (Lactobacillus)) was 1.53. For the same compound, the “L2FC BBRRNA vs ControlRNA” value (OTU 842786 (Intestinimonas)) was -0.59, the “L2FC BBRRNA vs BBRDNA” value (OTU 842786 (Intestinimonas)) was 2.24 and the “L2FC BBRDNA vs ControlDNA” value (OTU 842786 (Intestinimonas)) was -0.09. The “L2FC BBRRNA vs ControlRNA” value [6] was 0.55, the “L2FC BBRRNA vs BBRDNA” value [6] was -1.17 and the “L2FC BBRDNA vs ControlDNA” value [6] was -0.19. The “L2FC BBRRNA vs ControlRNA” value (OTU 847728 (Ruminococcus 2)) was -0.72, the “L2FC BBRRNA vs BBRDNA” value (OTU 847728 (Ruminococcus 2)) was 1.54 and the “L2FC BBRDNA vs ControlDNA” value (OTU 847728 (Ruminococcus 2)) was -0.88. For the same compound, the “L2FC BBRRNA vs ControlRNA” value [7] was -1.26, the “L2FC BBRRNA vs BBRDNA” value [7] was 1.01 and the “L2FC BBRDNA vs ControlDNA” value [7] was -1.67. For the same compound, the “L2FC BBRRNA vs ControlRNA” value (OTU 1107057 (Anaerostipes)) was -0.90, the “L2FC BBRRNA vs BBRDNA” value (OTU 1107057 (Anaerostipes)) was -2.55 and the “L2FC BBRDNA vs ControlDNA” value (OTU 1107057 (Anaerostipes)) was -1.14. The “L2FC BBRRNA vs ControlRNA” value (OTU 1132942 (Butyricicoccus)) was 0.64, the “L2FC BBRRNA vs BBRDNA” value (OTU 1132942 (Butyricicoccus)) was -3.15 and the “L2FC BBRDNA vs ControlDNA” value (OTU 1132942 (Butyricicoccus)) was 0.37. The “L2FC BBRRNA vs ControlRNA” value [8] was 2.76, the “L2FC BBRRNA vs BBRDNA” value [8] was -0.46 and the “L2FC BBRDNA vs ControlDNA” value [8] was 1.22. For the same compound, the “L2FC BBRRNA vs ControlRNA” value [9] was 0.08, the “L2FC BBRRNA vs BBRDNA” value [9] was -1.72 and the “L2FC BBRDNA vs ControlDNA” value [9] was 0.40. The “L2FC BBRRNA vs ControlRNA” value [10] was -2.19, the “L2FC BBRRNA vs BBRDNA” value [10] was -0.05 and the “L2FC BBRDNA vs ControlDNA” value [10] was -1.03. The “L2FC BBRRNA vs ControlRNA” value [11] was -1.45, the “L2FC BBRRNA vs BBRDNA” value [11] was -0.84 and the “L2FC BBRDNA vs ControlDNA” value [11] was -1.62. For the same compound, the “L2FC BBRRNA vs ControlRNA” value [12] was -1.27, the “L2FC BBRRNA vs BBRDNA” value [12] was -1.92 and the “L2FC BBRDNA vs ControlDNA” value [12] was -0.42. The “L2FC BBRRNA vs ControlRNA” value [13] was -1.90, the “L2FC BBRRNA vs BBRDNA” value [13] was -0.75 and the “L2FC BBRDNA vs ControlDNA” value [13] was -0.82. The “L2FC BBRRNA vs ControlRNA” value [14] was 0.42, the “L2FC BBRRNA vs BBRDNA” value [14] was 1.64 and the “L2FC BBRDNA vs ControlDNA” value [14] was 0.55. The “L2FC BBRRNA vs ControlRNA” value [15] was -0.92, the “L2FC BBRRNA vs BBRDNA” value [15] was -0.91 and the “L2FC BBRDNA vs ControlDNA” value [15] was -1.70. The “L2FC BBRRNA vs ControlRNA” value [16] was -0.22, the “L2FC BBRRNA vs BBRDNA” value [16] was 1.91 and the “L2FC BBRDNA vs ControlDNA” value [16] was -0.81. For the same compound, the “L2FC BBRRNA vs ControlRNA” value [17] was -0.28, the “L2FC BBRRNA vs BBRDNA” value [17] was 1.69 and the “L2FC BBRDNA vs ControlDNA” value [17] was -0.31. The “L2FC BBRRNA vs ControlRNA” value [18] was -1.01, the “L2FC BBRRNA vs BBRDNA” value [18] was 2.37 and the “L2FC BBRDNA vs ControlDNA” value [18] was -1.00. The “L2FC BBRRNA vs ControlRNA” value [19] was 0.23, the “L2FC BBRRNA vs BBRDNA” value [19] was 1.73 and the “L2FC BBRDNA vs ControlDNA” value [19] was 0.65. For the same compound, the “L2FC BBRRNA vs ControlRNA” value [20] was -0.55, the “L2FC BBRRNA vs BBRDNA” value [20] was 1.51 and the “L2FC BBRDNA vs ControlDNA” value [20] was -0.78. For the same compound, the “L2FC BBRRNA vs ControlRNA” value [21] was -0.42, the “L2FC BBRRNA vs BBRDNA” value [21] was 1.67 and the “L2FC BBRDNA vs ControlDNA” value [21] was -0.75. For the same compound, the “L2FC BBRRNA vs ControlRNA” value [22] was -0.10, the “L2FC BBRRNA vs BBRDNA” value [22] was -0.33 and the “L2FC BBRDNA vs ControlDNA” value [22] was -2.01. The “L2FC BBRRNA vs ControlRNA” value [23] was 0.00, the “L2FC BBRRNA vs BBRDNA” value [23] was 2.70 and the “L2FC BBRDNA vs ControlDNA” value [23] was 0.58.
